Test results from patent publication US20050148534A1, “Small molecule compositions and methods for increasing drug efficiency using compositions thereof” (priority 2003, published 2005).
Where two headings read alike, the source gives them in different places.

Tests used:
[1] = target: T1, Human thymidine kinase 1 (TK1) (Homo sapiens, UniProt P04183); test: Thymidine kinase coupled (kinetic) ATP depletion assay; format: biochemical; details: initial velocity relative to thymidine; 100 μM conjugate
T1 construct: His tag (from pET28b(+)) (N); made in house; host or cells: E. coli BL21-codon plus
T1 sequence (P04183 1-234): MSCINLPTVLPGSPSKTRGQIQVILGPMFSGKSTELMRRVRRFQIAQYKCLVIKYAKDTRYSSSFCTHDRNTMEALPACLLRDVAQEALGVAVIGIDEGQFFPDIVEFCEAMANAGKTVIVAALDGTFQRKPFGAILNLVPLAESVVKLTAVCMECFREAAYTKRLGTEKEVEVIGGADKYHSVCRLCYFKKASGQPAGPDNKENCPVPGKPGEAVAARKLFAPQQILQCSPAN

tubulin = test: Fluorescence-based microtubule polymerization assay (MPA); format: biochemical; details: mean percentage of paclitaxel or vinblastine activity; 0.75-10 micromolar
In short: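 Tubulin polymerization was followed by fluorescence (ex 360/em 405 nm) in a commercial kit with 1 mg/ml BSA added to every assay, glycerol being omitted for paclitaxel conjugates. Parent drugs and conjugates were tested at 0.75, 1.5, 3 and 10 micromolar final. Curves from the linear range of the dose responses were compared.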

MCF-7 breast carcinoma [2] = test: Cytotoxicity assay (monolayer), MCF-7; format: cell-based; details: Homo sapiens, MCF7
Experimental: (§1) Statistical Assoc., 81, 991-999, 1986.
(§2) Monolayer assays with tumor cell lines (MCF-7 breast carcinoma and HT-29 colorectal carcinoma from ATCC) were carried out in triplicate in 96-well plates with RPMI1640 medium containing 5% fetal bovine serum, 100 U/ml penicillin and 100 μg/ml streptomycin. Normal human foreskin fibroblasts (HFF #CC-2509) were from Cambrex and were cultured in FGM-2 medium. Exponentially growing cells (5,000 MCF-7 or HT-29; 1,500 HFF) were plated in 100 μl medium and incubated overnight (5% CO2, 37° C.). Compounds (20 pM to 20 μM final concentration, 6-8 doses) and vehicle (DMSO) controls were added and the incubation was continued for an additional 72 hours. Final cell density was determined by incubating cultures with 25 μl AlamarBlue reagent (BioSource, Camarillo, Calif.) for 4 hours, followed by determination of fluorescence at excitation of 544 nm and emission of 590 nm with a SpectroMax Gemini EM fluorescence plate reader (Molecular Devices, Sunnyvale, Calif.). EC50 values were generated from dose-response curves by a 4-parameter method using Softmax PRO software. Mean EC50s (±SD) represent the average of all tests carried out for all lots of a given compound. […] Statistical Assoc., 81, 991-999 (1986).

[3] = system: HT-29 colorectal carcinoma; test: Cytotoxicity assay (monolayer), HT-29; format: cell-based; details: Homo sapiens
Experimental: as §1, §2

HUVEC = test: Cytotoxicity assay (monolayer), HUVEC; format: cell-based; details: Homo sapiens, read-out: HUVEC (EC50 Ave) ML
[4] = system: Normal human foreskin fibroblasts (HFF); test: Cytotoxicity assay (monolayer), HFF; format: cell-based; details: Fibroblast
Experimental: as §1, §2

MCF7 = test: Cytotoxicity assay, MCF7 SSA (SSA not explained); format: cell-based; details: Homo sapiens
[5] = system: breast carcinoma, colon carcinoma and leukemia; test: Cytotoxicity of drug-thymidine conjugates (Example 22); format: cell-based
[6] = Cytotoxicity assay (soft agar), MCF-7; details: human
MCF-7 breast carcinoma [7] = test: Cytotoxicity assay (soft agar), MCF-7; details: Homo sapiens
[8] = Cytotoxicity assay (soft agar), HT-29; details: human
[9] = system: HT-29 colorectal carcinoma; test: Cytotoxicity assay (soft agar), HT-29; details: Homo sapiens

Q: Which “Ave. TK1 Kinase Act.” value [1] does the source give for CC(=O)O[C@H]1C(=O)[C@@]2(C)[C@H]([C@H](OC(=O)c3ccccc3)[C@]3(O)C[C@H](OC(=O)[C@H](O)[C@@H](NC(=O)c4ccccc4)c4ccccc4)C(C)=C1C3(C)C)[C@]1(OC(C)=O)CO[C@@H]1C[C@@H]2O [Paclitaxel] here?
A: Its value is “A (A<20)”.

Q: And the “Ave. MPA Act” value (tubulin)?
A: Its value is “C (C>100)”.

Q: And the EC50 (MCF-7 breast carcinoma [2]; mean ± SD, read-out: MCF-7 Monolayer EC50)?
A: The EC50 was 5 ± 2 nM.

Q: What about the EC50 (MCF-7 breast carcinoma [2]; monolayer, 72 hours, AlamarBlue, read-out: MCF7 (EC50 Ave) ML) of the same compound?
A: Its EC50 is < 100 nM.

Q: What about the EC50 ([3]; mean ± SD, read-out: HT-29 Monolayer EC50) of the same compound?
A: Its EC50 is 5 ± 3 nM.

Q: What about the EC50 ([3]; monolayer, 72 hours, AlamarBlue, read-out: HT29 (EC50 Ave) ML) of the same compound?
A: The EC50 was < 100 nM.

Q: What about the EC50 (HUVEC) of the same compound?
A: Its EC50 is < 100 nM.

Q: And the EC50 ([4]; mean ± SD, read-out: HFF Monolayer EC50)?
A: Its EC50 is 9 ± 5 nM.

Q: What about the EC50 ([4]; monolayer, 72 hours, AlamarBlue, read-out: HFF (EC50 Ave) ML) of the same compound?
A: The EC50 was < 100 nM.

Q: And the EC50 (MCF7)?
A: The EC50 was < 100 nM.

Q: And the EC50 [5]?
A: The EC50 was 5 to 8 nM.

Q: And the selectivity ratio [6]?
A: The selectivity ratio was 1.4.

Q: What about the EC50 (MCF-7 breast carcinoma [7]; MCF7, read-out: MCF7 (EC50 Ave) SA) of the same compound?
A: The EC50 was < 100 nM.

Q: What about the EC50 (MCF-7 breast carcinoma [7]; MCF7, read-out: MCF-7 Soft Agar EC50) of the same compound?
A: Its EC50 is 6 ± 3 nM.

Q: And the selectivity ratio [8]?
A: The selectivity ratio was 0.6.

Q: What about the EC50 ([9]; HT-29, read-out: HT29 (EC50 Ave) SA) of the same compound?
A: Its EC50 is < 100 nM.

Q: And the EC50 ([9]; HT-29, read-out: HT-29 Soft Agar EC50)?
A: The EC50 was 15 ± 2 nM.
